# Target: T1, sortase A (SrtA) (Staphylococcus aureus, UniProt Q2FV99)
# T1 construct: 6 × His recombinant SrtA from pET28a::srtA
# Assay: intrinsic fluorescence quenching (Stern-Volmer, KA); supported by FRET inhibition of purified SrtA (IC50 […]) and reversibility by dilution
# Format: binding
# Conditions: read-out: intrinsic fluorescence quenching (Stern-Volmer, KA); supported by FRET inhibitio (converted)
# Description: This indicated a significant interaction between verbascoside and SrtA
# T1 sequence (Q2FV99 whole entry): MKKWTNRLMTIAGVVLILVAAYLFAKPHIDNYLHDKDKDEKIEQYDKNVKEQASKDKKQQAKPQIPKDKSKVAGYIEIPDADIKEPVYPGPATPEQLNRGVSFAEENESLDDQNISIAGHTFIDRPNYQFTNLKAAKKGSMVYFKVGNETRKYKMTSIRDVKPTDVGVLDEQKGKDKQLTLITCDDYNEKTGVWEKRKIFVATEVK
smiles,measurement,value
C[C@@H]1O[C@@H](O[C@@H]2[C@@H](O)[C@H](OCCc3ccc(O)c(O)c3)O[C@H](CO)[C@H]2OC(=O)/C=C/c2ccc(O)c(O)c2)[C@H](O)[C@H](O)[C@H]1O [verbascoside],Kd,41 µM

# From PMC11153306, “Unraveling the efficacy of verbascoside in thwarting MRSA pathogenicity by targeting sortase A” (Applied Microbiology and Biotechnology, 2024)
